Results taken from patent US20090081143A1, “Extracts From Black Yeast For Whitening Skin” (priority 2007, published 2009).

System: UV-B induced tan
Assay: Whitening action: fading of UV-B induced tan on the backs of volunteers (Minolta Chromameter reflectance)
Format: in vivo, human
Details: FIG. 5; 1% extract or 2% kojic acid in Example 4 cream; 2 mg/cm^2 once a day; nine volunteers
Protocol: A comparative study is done to determine the whitening efficacy of an Exophiala mansonii-derived enzyme extract in comparison to the efficacy of a known tyrosinase inhibitor, kojic acid. More specifically, the study was designed to study the lightening effect of these materials (reduction in tanning) using the fading of UV-B induced tan as a marker. Two samples are prepared. The first sample contains the composition described in Example 4. The second sample has the same composition as that described in Example 4 except that 2% kojic acid is substituted for the 1% Exophiala mansonii enzyme extract. Nine volunteers participate in the study. The volunteer panelists are in normal health with no evidence of acute or chronic disease including dermatological problems. […] Tanning is observed for six days after irradiation at which point color measurements are made using a Minolta Chromameter which measures the difference in reflectance of the skin, L. The change in the value of the difference in reflectance, ΔL*, is measured against a baseline skin color value of untreated irradiated skin measured on day 6. […] The observed reflectance values for all the time points are recorded, and the area under the curve for each test site was calculated. The Whitening Factor is calculated as the area under the curve of the treated site subtracted from the untreated site, and is shown in FIG. 5.

O=c1cc(CO)occ1O [kojic acid]
Whitening Factor (area under the curve of the treated site subtracted from the untreated site): 1.8
